Results from ChEMBL document CHEMBL3507680, “University of Dundee, Gates Library screen for HepG2 cell viability”.

Experiment: Human HepG2 cell viability assay in 384 well format
Format: toxicity, cell-based
Parameters: dose 125 nL, time 70.5 hour; cytotoxicity at 70.5 h: concentration not given beside the values
Conditions: HepG2 cells, read-out: Inhibition

Point of comparison: CCn1nc(C)c2ccn(CC(=O)NCCN3CCCCC3)c(=O)c21, cytotoxicity at 70.5 h -5.13%. Against it:
- CC(=O)Nc1ccc(-n2ccc3nc(N4CCCC4)ncc3c2=O)cc1 — higher, 1.42%
- CN(CC(F)(F)F)C(=O)COc1nc(Cc2ccc(F)cc2)no1 — lower, -7.01%
- NC(=O)[C@@H]1CCCN1C(=O)c1csc(-c2ccc(C(F)(F)F)cc2)n1 — higher, 20.6%
- Cc1ccc(OCCN2CCC(c3ccnn3CCO)CC2)cc1 — higher, 3.29%
- CSc1nccc(N2CCC3(CCCN(Cc4cccc(C)c4)C3)C2)n1 (stereo unspecified) — higher, -0.65%
- O[C@@H]1C[C@@](CNCC2CC2)(COc2cccnc2)C[C@@H]1O — lower, -7.73%
- CN(C)C(=O)c1cc(-c2ccccc2)[nH]n1 — lower, -6.41%
- Cc1cc(C)n(CCNC(=O)c2cc(C3CC3)n[nH]2)n1 — higher, -4.88%
- Cn1cnc(CN2Cc3nccn3CC2c2ccccc2)c1 (stereo unspecified) — lower, -7.94%
- CN(Cc1cc2n(n1)CCNC2)Cc1n[nH]c2c1CCCCC2 — higher, -1.36%
- Cc1[nH]c2ccc(C(=O)N3C[C@@H](O)[C@H](N4CCOCC4)C3)cc2c1C — higher, -1.3%
- Cc1noc(C)c1CNC(=O)N(C)C1CCN(c2ccccc2)C1=O (stereo unspecified) — higher, -2.2%
- Cc1cc(CN2CCCn3nc(CCC(=O)O)cc3C2)ccc1F — higher, 2.51%
- Cc1noc(C)c1CN(Cc1cccnc1)C1CN2CCC1CC2 (stereo unspecified) — higher, 25%
- COc1ccc(CN2C[C@@H](N(C)Cc3ccco3)[C@H]3OCCC[C@H]32)cc1 — lower, -8.22%
- CCOCCCNC(=O)C1(C)CCC(=O)N1c1ccccc1OC (stereo unspecified) — lower, -8.49%
- CN(C)C(CNC(=O)c1[nH]nc(C2CC2)c1Br)C1CC1 (stereo unspecified) — lower, -5.45%
- NS(=O)(=O)CCNC(=O)c1cc2ccccc2nc1N1CCCC1 — lower, -5.72%
- Cc1noc(Cl)c1CC(=O)NCCOc1ccc(F)cc1F — higher, -0.975%
- Cn1cnnc1CCNC(=O)c1cnn(Cc2ccccc2)c1 — lower, -14.9%
- Cc1csc(CNC(=O)NCC(O)c2ccc(F)c(F)c2)n1 (stereo unspecified) — higher, 10.8%
- CC(C)c1ncc(Cl)c(C(=O)N2CCN(C3CCCC3)CC2)n1 — higher, -3.22%
- CCN(C)c1ncnc2c1CCN(C(=O)c1cccn1C)CC2 — higher, 21%
- CNC(=O)[C@@H]1[C@H]2CN(Cc3ccoc3)CCN2C[C@H]1c1ccccc1 — higher, -0.196%
- CCN(C)c1ncnc2c1CCN(c1ccc(C)nn1)CC2 — higher, -2.59%
- CC(C)(C)CN1CCCC(c2nccnc2Nc2cnccn2)C1 (stereo unspecified) — lower, -12.3%
- Cc1nc2c(c(=O)n1C)CCN(C(=O)Cn1cccc1)CC2 — higher, -4.24%
- Cn1cc(CNC2CCc3ncnn3C2)c(-c2cccnc2)n1 (stereo unspecified) — lower, -5.95%
- CN(C)C(=O)c1coc(COc2ccccc2)n1 — higher, 15.6%
- FC(F)(F)c1cccnc1N1CCC(OC2CCOCC2)CC1 — lower, -6.19%
- Cc1ccc(CN2CCOC3(COCCN(S(C)(=O)=O)C3)C2)s1 (stereo unspecified) — lower, -6.35%
- NC(=O)c1ccn(COc2ccccc2Cl)n1 — lower, -9.79%
- CCS(=O)(=O)N1CCN(C(=O)NC(C)C)CC2(CC(=O)N(C)C2)C1 (stereo unspecified) — lower, -7.37%
- CNS(=O)(=O)c1cc(C(=O)NC2CCOc3ccccc32)cc(C)c1C (stereo unspecified) — higher, 8.79%
- CCN(CC)CCn1cc(NC(=O)CNc2ccccc2OC)cn1 — higher, 7.01%
- O=C(c1ccc2c(c1)CCC2)N1CC[C@H](O)[C@]2(CCCO2)C1 — higher, -0.381%
- CC(=O)Nc1nc(C2CCN(CC(N)=O)CC2)cs1 — higher, -3.74%
- CN1CCN(C(=O)c2nnc3ccc(Cl)cc3n2)CC1 — lower, -10.9%
- COCCS(=O)(=O)N(Cc1cscn1)c1ccccc1 — higher, -5.03%
- COC[C@@H]1CCCN1C(=O)CCc1c(C)nn(C)c1C — higher, -2.05%
- Fc1ccc2nc([C@H]3CCNC3)[nH]c2c1 — higher, -0.112%
- CCN(C)c1ncnc2c1CCN(C(=O)c1ccccn1)CC2 — higher, 17.4%
- c1nc(NCc2cc3n(n2)CCN(C2CCCCC2)C3)c2nc[nH]c2n1 — lower, -11.7%
- Cc1cc(NC(=O)N2CCN(C)CC2C)n(C)n1 (stereo unspecified) — lower, -6.62%
- N#Cc1ccc(CN2CCc3sccc3C2)c(F)c1 — higher, -1.03%
- COCC1COCCC12CCN(C(=O)CC1=CCCCC1)CC2 (stereo unspecified) — higher, -2.79%
- COc1ccc2c(c1)CCCN(C(C)C(=O)N1CCCC1)C2 (stereo unspecified) — higher, -3.36%
- CCOCCCNC(=O)CCSCc1csc(C)n1 — higher, -2.1%
- Cc1cnn(CCCNC(=O)CCC2CCCCN2C)c1 (stereo unspecified) — lower, -13.1%
- C[C@@H]1CN(C(=O)c2cnc(C3CC3)nc2)CC[C@@]1(O)C1CCOCC1 — lower, -8.12%
- O=C1NC2(CCNCC2)CC1c1ccccc1 (stereo unspecified) — higher, 30.9%
- COCCC(=O)N(CCC#N)c1ccc(C)c(C)c1 — higher, -3.89%
- CNS(=O)(=O)c1ccc(C(=O)NC2CCc3nc(C)cn3C2)o1 (stereo unspecified) — lower, -6.79%
- Cc1cc(COC(=O)[C@@H]2Cc3ccccc3CN2S(C)(=O)=O)no1 — higher, 1.54%
- CN1C(=O)c2cccc(NC(=O)c3cccc(S(C)(=O)=O)c3)c2C1=O — higher, -4.72%
- Cc1ccc(OCCN(C)C(=O)CCCN2CCCC2=O)c(C)c1 — lower, -5.15%
- Cc1noc(C)c1CCCNC(=O)C1CCN(C(=O)C2CC2)CC1 — higher, 24.8%
- Cc1ccc(C(C)NC(=O)N2CCN(S(C)(=O)=O)CC2)o1 (stereo unspecified) — higher, 1.52%
- Cc1ccccc1C1(CNC(=O)c2cccc(S(C)(=O)=O)c2)CC1 — higher, 20.2%
- c1csc(-c2noc(CNCCn3cccn3)n2)c1 — higher, -4.45%
- CNC(=O)CNC1CC2(CCN(c3ncccn3)CC2)c2ccccc21 (stereo unspecified) — lower, -9.1%
- COc1ccccc1N1CCN(C(=O)CCCS(N)(=O)=O)C(C)C1 (stereo unspecified) — lower, -5.3%
- CCC1(C(=O)O)CCCN(C(=O)c2ccc(O)c(Cl)c2)C1 (stereo unspecified) — higher, -4.39%
- CCc1nccn1C1CCCN(C(=O)c2ccc(OC)c(OC)c2)C1 (stereo unspecified) — higher, 9.92%
- CN(c1ccc(C(N)=O)nn1)C1CCC1 — lower, -15.8%
- Fc1ccccc1CN1C[C@@H](OCc2ccncc2)[C@H]2OCCC[C@H]21 — lower, -12.8%
- Cc1nnc(NC(=O)NCc2cccnc2N(C)C)s1 — lower, -8.59%
- CN(C)CCN1C[C@@H]2CN(c3ccccc3)C[C@@H]2C1=O — higher, 23.6%
- COc1ccc(S(N)(=O)=O)cc1C(=O)N(C)Cc1cc(C)on1 — higher, 24.6%
- CC(C)CCC(=O)N1CC[C@@H]2[C@H](CC1)N(S(C)(=O)=O)CCS2(=O)=O — lower, -10.2%
- CCN(CC)C(=O)CN1CCCC1C(=O)N(C)C (stereo unspecified) — lower, -11.8%
- Cc1ncc(CN2CCCC(c3cc(C(N)=O)[nH]n3)C2)s1 (stereo unspecified) — higher, 57.9%
- O=C(NCCn1cnc(C2CCCC2)cc1=O)c1ccc(=O)[nH]n1 — higher, -0.636%
- O=C(NC1CC1)C(c1ccccc1)N1CCn2c(nnc2C2CC2)C1 (stereo unspecified) — higher, 1.07%
- Cc1nc(-c2cc(C(=O)NC(C)(C(=O)O)C(C)C)co2)cs1 (stereo unspecified) — lower, -7.3%
- O=C(Nc1cc(N2CCOCC2)ncn1)c1cnccn1 — higher, -3.66%
- O=C(c1cc2ccccc2o1)N1CCN(Cn2cc(Cl)cn2)CC1 — lower, -5.33%
- Cc1ccn2ncc(C(=O)N3CCCC(c4cc(C)[nH]n4)C3)c2n1 (stereo unspecified) — lower, -7.17%
- COc1ccc(C)cc1S(=O)(=O)N[C@H]1CN(C(C)=O)C[C@@H]1C1CC1 — lower, -7.75%
- Cc1cc(-c2nc(-c3c(C)ncc4c3CCNC4)no2)nc(C)n1 — higher, 26.9%
